Measured values as given in patent US9657002B2, “Oxindole derivatives carrying an oxetane substituent and use thereof for treating vassopressin-related diseases” (AbbVie Deutschland GmbH & Co. KG, priority 2013, dated 2017).

What was measured:
[1] = system: stress-induced ACTH release; assay: Stress-induced ACTH release; format: in vivo, NMRI mice; settings: mice, restraint stress, i.p. 1 hour before; at 10 and 30 mg/kg
From the text: (§1) Male NMRI mice (Janvier, Le Genest-St-Isle, France) were used for stress-induced Adrenocorticotropic hormone (ACTH) release. Adult male Wistar rats (175-220 g body weight upon arrival) were obtained from Harlan Inc. (Indianapolis, Ind.). For the forced swim test, male Sprague Dawley rats (100-120 g body weight upon arrival) were obtained from Janvier (Le Genest-St-Isle, France). The animals were acclimatized to the animal facilities for at least one week before the start of the experimental procedures. Animals were maintained in a controlled environment on a 12:12 hour light dark schedule (lights on 06:00 h for rats in Vogel conflict test and 05:30 h for rats in forced swim test). Experimental procedures took place during the illuminated phase of the light/dark cycle. Food and water were available ad libitum, except for the Vogel conflict test, where the animals were submitted to a water deprivation regimen as described below. […]
The blood was collected in 1.3 mL blood sampling vials containing potassium EDTA (Sarstedt, Nümbrecht, Germany) and […] aprotinin solution (saline solution, 3-7 TIU [trypsin inhibitor units]/mg protein; Sigma-Aldrich, Germany). […] ACTH concentrations were measured by an ELISA (enzyme-linked immuno sorbent assay) for ACTH (IBL Hamburg, Germany). […]

Wistar rats = assay: Vogel conflict test; format: in vivo; settings: i.p. 30 minutes before the test, at 10 and 30 mg/kg
From the text: as §1
The Vogel conflict test is a well-validated animal model to detect compounds with anxiolytic properties. […] The number of punished responses was automatically recorded for each rat during 5 min of testing. […]

Sprague Dawley rats = assay: Forced swim test; format: in vivo; settings: i.p. 24, 4 and 0.5 hours before testing, at 10 mg/kg
From the text: as §1
The forced swim test consisted of a pre-test and a test swim. […] Test swims were recorded on videotape and subsequently used for analysis. […]

[2] = biological target: T1, human vasopressin V1b receptor (Homo sapiens, UniProt P47901); assay: biochemical
T1 sequence (P47901 1-424): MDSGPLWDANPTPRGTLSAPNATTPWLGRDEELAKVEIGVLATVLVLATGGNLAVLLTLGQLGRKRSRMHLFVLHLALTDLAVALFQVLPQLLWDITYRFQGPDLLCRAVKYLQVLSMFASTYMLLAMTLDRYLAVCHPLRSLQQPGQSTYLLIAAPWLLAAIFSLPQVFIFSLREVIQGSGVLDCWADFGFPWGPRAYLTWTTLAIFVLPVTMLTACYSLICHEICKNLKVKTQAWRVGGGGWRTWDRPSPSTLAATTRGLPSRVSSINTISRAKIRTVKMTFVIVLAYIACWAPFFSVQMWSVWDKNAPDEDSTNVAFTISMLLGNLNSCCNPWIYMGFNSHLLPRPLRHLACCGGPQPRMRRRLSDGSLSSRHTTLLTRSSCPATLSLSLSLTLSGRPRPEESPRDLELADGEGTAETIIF

[3] = biological target: human vasopressin V1a receptor (Homo sapiens, UniProt P37288); assay: Vasopressin V1a receptor binding assay; settings: selectivity quotient, human V1a vs human V1b
human vasopressin V1a receptor, sequence (P37288 whole entry): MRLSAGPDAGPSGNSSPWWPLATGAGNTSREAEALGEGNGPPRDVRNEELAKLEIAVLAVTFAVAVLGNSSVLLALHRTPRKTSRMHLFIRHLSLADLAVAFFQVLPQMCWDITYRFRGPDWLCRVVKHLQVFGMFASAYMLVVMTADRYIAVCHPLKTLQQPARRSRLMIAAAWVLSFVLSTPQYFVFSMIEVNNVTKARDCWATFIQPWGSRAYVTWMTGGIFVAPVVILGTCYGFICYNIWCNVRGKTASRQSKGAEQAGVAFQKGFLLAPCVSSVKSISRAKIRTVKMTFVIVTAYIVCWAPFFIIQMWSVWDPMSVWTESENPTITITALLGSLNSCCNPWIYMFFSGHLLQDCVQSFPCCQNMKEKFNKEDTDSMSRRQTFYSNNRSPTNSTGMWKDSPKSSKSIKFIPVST

COc1ccc(S(=O)(=O)N2C(=O)[C@@](NC(=O)N3CCN(C4CCN(C5COC5)CC4)CC3)(c3cccnc3OC)c3cc(C#N)ccc32)c(OC)c1 [Example 21, N-[(3S)-5-cyano-1-(2,4-dimethoxyphenyl)sulfonyl-3-(2-methoxy-3-pyridyl)-2-oxo-indolin-3-yl]-4-[1-(oxetan-3-yl)-4-piperidyl]piperazine-1-carboxamide]
stress-induced ACTH release [1]: significantly blocked the stress response
punished responses in Vogel conflict (anxiolytic-like efficacy) (Wistar rats): significant effect
latency to immobility in the forced swim test (antidepressant-like effect) (Sprague Dawley rats): significant antidepressant-like effect
Ki [2]: 0.01 to 0.1 µM
Ki(h-V1a)/Ki(h-V1b) [3]: +++ (>75)
